Earlier results as cited in patent publication US7183417B2, “Simple stereocontrolled synthesis of salinosporamide A” (priority 2004, dated 2007).

What was measured:
[1] = test system: proteasome; settings: qualitative statement from the literature
[2] = test system: many tumor cell lines; settings: read-out: in vitro cytotoxic activity IC50

| Structure (SMILES) | proteasome inhibition (in words) [1] | IC50 [2] |
| --- | --- | --- |
| C[C@@]12OC(=O)[C@]1([C@@H](O)[C@@H]1C=CCCC1)NC(=O)[C@@H]2CCCl [Salinosporamide A] | even more effective proteasome inhibitor than omuralide | ≤ 10 nM |
| CC(C)[C@H](O)[C@@]12NC(=O)[C@H](C)[C@@H]1OC2=O [omuralide, reference compound] | potent inhibitor of proteasome function | – |
